Read-outs that look alike come from different tables or passages of the source. Square brackets hold non-standard residues; d marks the D form. Ends that are not written are not given here. Peptide text beside a SMILES is read from it.
How the values were obtained:
[1] = tested on: sheep red blood cells (SRBCs)
A. baumannii ATCC 19606 [2] = experiment: time-kill (killing kinetic) assay; assay type: cell-based; conditions: Fig 7D
[3] = tested on: human immortalized keratinocytes (HaCaT); assay type: cell-based
Description: (§1) Cell viability remained above 70% even at the highest tested concentrations after 72 h of incubation.

[4] = tested on: human primary dermal fibroblasts (HDF); assay type: cell-based
Description: as §1

[5] = tested on: human epidermoid carcinoma cells (A431); assay type: cell-based; conditions: 72 h, 100 μM
Description: as §1

A. baumannii ATCC 19606 [6] = experiment: murine skin abscess infection model; assay type: in vivo, mouse (female CD-1); conditions: after 4 days; single topical dose at MIC ([…] μM r(P)YLL19, 32 μM D(P)YLL19) 2 h postinfection; CFU of homogenized skin; n = 6
Description: Six-week-old female CD-1 mice (Charles River, stock number: 18679700-022) were anesthetized with isoflurane, and the dorsal skin was shaved. A superficial linear abrasion was made using a sterile needle. A 20 μL aliquot of A. baumannii ATCC 19606, grown in LB medium to an optical density at 600 nm (OD600) of 0.5 and then washed twice with sterile PBS (pH 7.4; 9391 g for 2 min), was applied to the abraded area at a final concentration of 3.67 × 10^6 CFU mL^-1. Peptides and antibiotics were diluted in sterile water to their respective MICs and topically applied to the infection site 2 h postinfection. Untreated control mice received 20 μL of sterile PBS. At 2 and 4 days postinfection, animals were euthanized, and the wounded infected skin area was aseptically and uniformly excised. Tissue was homogenized using a bead beater (25 Hz for 20 min), serially diluted 10-fold, and plated on MacConkey agar plates for CFU quantification. Each treatment group included six mice (n = 6), with mice housed individually to prevent cross-contamination. […] Two independent experiments were conducted, each with 3 mice per treatment group. Statistical significance was assessed using one-way ANOVA followed by Dunnett's post hoc test after log10 transformation of CFU counts.

[7] = tested on: S. epidermidis ATCC 35984; experiment: time-kill (killing kinetic) assay; assay type: cell-based; conditions: Fig 7D
A. baumannii ATCC 19606 [8] = tested on: A. baumannii ATCC 19606
[9] = tested on: Human coronavirus 229E (HCoV-229E); conditions: plaque reduction
[10] = tested on: S. epidermidis ATCC 35984

## CC[C@@H](C)[C@@H](NC(=O)[C@@H](CCCNC(=N)N)NC(=O)[C@@H](Cc1ccccc1)NC(=O)[C@H](NC(=O)[C@@H](CC(C)C)NC(=O)[C@@H](Cc1c[nH]cn1)NC(=O)[C@@H](CCCCN)NC(=O)[C@@H](CCCCN)NC(=O)[C@@H](CCCNC(=N)N)NC(=O)[C@@H](Cc1c[nH]c2ccccc12)NC(=O)[C@@H](CCCNC(=N)N)NC(=O)CNC(=O)[C@@H](CC(C)C)NC(=O)[C@@H](CC(C)C)NC(=O)[C@@H](CC(C)C)NC(=O)[C@@H](Cc1ccc(O)cc1)NC(=O)[C@H]1CCCN1)[C@H](C)O)C(=O)N[C@H](CC(C)C)C(=O)N[C@H](CC(N)=O)C(=O)N[C@H](CC(C)C)C(=O)O [D(P)YLL19] (H-[dP][dY][dL][dL][dL]G[dR][dW][dR][dK][dK][dH][dL][dT][dF][dR][dI][dL][dN][dL]-OH; N-terminus and C-terminus assumed)
[1]
  hemolytic activity: no hemolytic activity
A. baumannii ATCC 19606 [2]
  time to complete bacterial eradication, peptide combined with colistin: ≤ 15 min
[3]
  reduction in viability: 25–30%
[3]; 72 h, 100 μM
  cell viability: above 70%
[4]
  reduction in viability: 25–30%
[4]; 72 h, 100 μM
  cell viability: above 70%
[5]
  cell viability: above 70%
A. baumannii ATCC 19606 [6]
  reduction in bacterial burden: 3 to 4 orders of magnitude
[7]
  time to complete bacterial eradication, peptide combined with colistin or polymyxin B: ≤ 15 min

## PYLLLGRWRKKHLTFRILNL [r(P)YLL19]
A. baumannii ATCC 19606 [8]; ATCC 19606
  MIC after treatment 12: 5 µM
A. baumannii ATCC 19606 [8]; Table S3, serial exposure at MIC/2, treatment 1 of 21
  MIC after treatment 1: 5 µM
A. baumannii ATCC 19606 [8]; Table S3, serial exposure at MIC/2, treatment 2 of 21
  MIC after treatment 2: 5 µM
A. baumannii ATCC 19606 [8]; Table S3, serial exposure at MIC/2, treatment 3 of 21
  MIC after treatment 3: 5 µM
A. baumannii ATCC 19606 [8]; Table S3, serial exposure at MIC/2, treatment 4 of 21
  MIC after treatment 4: 5 µM
A. baumannii ATCC 19606 [8]; Table S3, serial exposure at MIC/2, treatment 5 of 21
  MIC after treatment 5: 5 µM
A. baumannii ATCC 19606 [8]; Table S3, serial exposure at MIC/2, treatment 6 of 21
  MIC after treatment 6: 5 µM
A. baumannii ATCC 19606 [8]; Table S3, serial exposure at MIC/2, treatment 7 of 21
  MIC after treatment 7: 5 µM
A. baumannii ATCC 19606 [8]; Table S3, serial exposure at MIC/2, treatment 8 of 21
  MIC after treatment 8: 5 µM
A. baumannii ATCC 19606 [8]; Table S3, serial exposure at MIC/2, treatment 9 of 21
  MIC after treatment 9: 5 µM
A. baumannii ATCC 19606 [8]; Table S3, serial exposure at MIC/2, treatment 10 of 21
  MIC after treatment 10: 5 µM
A. baumannii ATCC 19606 [8]; Table S3, serial exposure at MIC/2, treatment 11 of 21
  MIC after treatment 11: 5 µM
A. baumannii ATCC 19606 [8]; Table S3, serial exposure at MIC/2, treatment 13 of 21
  MIC after treatment 13: 5 µM
A. baumannii ATCC 19606 [8]; Table S3, serial exposure at MIC/2, treatment 14 of 21
  MIC after treatment 14: 5 µM
A. baumannii ATCC 19606 [8]; Table S3, serial exposure at MIC/2, treatment 15 of 21
  MIC after treatment 15: 5 µM
A. baumannii ATCC 19606 [8]; Table S3, serial exposure at MIC/2, treatment 16 of 21
  MIC after treatment 16: 5 µM
A. baumannii ATCC 19606 [8]; Table S3, serial exposure at MIC/2, treatment 17 of 21
  MIC after treatment 17: 5 µM
A. baumannii ATCC 19606 [8]; Table S3, serial exposure at MIC/2, treatment 18 of 21
  MIC after treatment 18: 5 µM
A. baumannii ATCC 19606 [8]; Table S3, serial exposure at MIC/2, treatment 19 of 21
  MIC after treatment 19: 5 µM
A. baumannii ATCC 19606 [8]; Table S3, serial exposure at MIC/2, treatment 20 of 21
  MIC after treatment 20: 5 µM
A. baumannii ATCC 19606 [8]; Table S3, serial exposure at MIC/2, treatment 21 of 21
  MIC after treatment 21: 5 µM
[9]; read-out: IC50, co-treatment, Vero-76 cells exposed to virus and peptide simultaneously, 1 h, 37 °C
  IC50: 12.5 µM
[9]; read-out: IC50, virus pretreatment, virus incubated with peptide 1 h, 37 °C before infection
  IC50: 0.56 µM
[10]; ATCC 35984
  MIC after treatment 12: 5 µM
[10]; Table S4, serial exposure at MIC/2, treatment 1 of 21
  MIC after treatment 1: 5 µM
[10]; Table S4, serial exposure at MIC/2, treatment 2 of 21
  MIC after treatment 2: 5 µM
[10]; Table S4, serial exposure at MIC/2, treatment 3 of 21
  MIC after treatment 3: 5 µM
[10]; Table S4, serial exposure at MIC/2, treatment 4 of 21
  MIC after treatment 4: 5 µM
[10]; Table S4, serial exposure at MIC/2, treatment 5 of 21
  MIC after treatment 5: 5 µM
[10]; Table S4, serial exposure at MIC/2, treatment 6 of 21
  MIC after treatment 6: 5 µM
[10]; Table S4, serial exposure at MIC/2, treatment 7 of 21
  MIC after treatment 7: 5 µM
[10]; Table S4, serial exposure at MIC/2, treatment 8 of 21
  MIC after treatment 8: 5 µM
[10]; Table S4, serial exposure at MIC/2, treatment 9 of 21
  MIC after treatment 9: 5 µM
[10]; Table S4, serial exposure at MIC/2, treatment 10 of 21
  MIC after treatment 10: 5 µM
[10]; Table S4, serial exposure at MIC/2, treatment 11 of 21
  MIC after treatment 11: 5 µM
[10]; Table S4, serial exposure at MIC/2, treatment 13 of 21
  MIC after treatment 13: 5 µM
[10]; Table S4, serial exposure at MIC/2, treatment 14 of 21
  MIC after treatment 14: 5 µM
[10]; Table S4, serial exposure at MIC/2, treatment 15 of 21
  MIC after treatment 15: 5 µM
[10]; Table S4, serial exposure at MIC/2, treatment 16 of 21
  MIC after treatment 16: 5 µM
[10]; Table S4, serial exposure at MIC/2, treatment 17 of 21
  MIC after treatment 17: 5 µM
[10]; Table S4, serial exposure at MIC/2, treatment 18 of 21
  MIC after treatment 18: 5 µM
[10]; Table S4, serial exposure at MIC/2, treatment 19 of 21
  MIC after treatment 19: 5 µM
[10]; Table S4, serial exposure at MIC/2, treatment 20 of 21
  MIC after treatment 20: 5 µM
[10]; Table S4, serial exposure at MIC/2, treatment 21 of 21
  MIC after treatment 21: 5 µM

From publication PMC12848717, “Discovery of Encrypted Peptides in a Human Matrix Metallopeptidase” (JACS Au, 2025)
